The compounds below were run against High affinity nerve growth factor receptor (Homo sapiens, UniProt P04629) (assay: HTRF Assay: Isolated TRK Enzyme assays use the HTRF KinEASE-TK kit (Cisbio Cat#62TK0PEJ) with recombinant His-tagged cytoplasmic domains of each TRK receptor sourced from Invitrogen (see table below). […] A standard curve using the compound of Example 135 disclosed in WO2005/116035 of 150 uM is also prepared on each test plate. High percentage effect (HPE) is defined by 150 uM.).
Sequence of High affinity nerve growth factor receptor (P04629 whole entry, the tested form may be a part): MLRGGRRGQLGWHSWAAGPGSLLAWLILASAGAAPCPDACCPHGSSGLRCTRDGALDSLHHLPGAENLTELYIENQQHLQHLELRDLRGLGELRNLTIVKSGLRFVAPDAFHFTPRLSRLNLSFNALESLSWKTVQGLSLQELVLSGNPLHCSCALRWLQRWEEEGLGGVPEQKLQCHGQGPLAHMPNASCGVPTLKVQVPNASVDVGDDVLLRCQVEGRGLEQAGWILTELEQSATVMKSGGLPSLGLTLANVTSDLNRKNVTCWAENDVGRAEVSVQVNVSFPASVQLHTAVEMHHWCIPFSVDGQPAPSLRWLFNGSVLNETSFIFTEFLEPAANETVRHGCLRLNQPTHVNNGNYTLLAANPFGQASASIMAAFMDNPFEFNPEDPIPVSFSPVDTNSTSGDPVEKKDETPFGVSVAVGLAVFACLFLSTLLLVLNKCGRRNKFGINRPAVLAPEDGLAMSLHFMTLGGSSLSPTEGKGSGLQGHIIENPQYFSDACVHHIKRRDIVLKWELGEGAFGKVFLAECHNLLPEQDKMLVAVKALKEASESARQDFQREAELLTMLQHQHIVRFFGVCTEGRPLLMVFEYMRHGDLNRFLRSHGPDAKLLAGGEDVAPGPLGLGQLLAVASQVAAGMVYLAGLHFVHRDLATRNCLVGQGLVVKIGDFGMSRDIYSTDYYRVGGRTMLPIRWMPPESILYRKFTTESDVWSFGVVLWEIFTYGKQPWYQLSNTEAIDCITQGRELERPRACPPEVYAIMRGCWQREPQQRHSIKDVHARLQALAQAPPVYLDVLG

| Compound | IC50 |
| --- | --- |
| CC(C)(CO)n1cc(C(=O)c2cncc(NC(=O)Cc3ccc(Cl)cc3)c2)c2cncc(F)c21 | 0.00653 µM |
| CC(C)(CO)n1cc(C(=O)c2cc(NC(=O)Cn3cc(C(F)(F)F)nn3)ccn2)c2cnccc21 | 0.0793 µM |
| CC(C)(CO)n1cc(C(=O)c2cncc(NC(=O)Cn3cc(C4CC4)nn3)c2)c2cnccc21 | 0.0124 µM |
| CC(C)(CO)n1cc(C(=O)c2cncc(NC(=O)Cc3ccc(C#N)cc3)c2)c2cnccc21 | 0.00954 µM |

Reference: ChEMBL document CHEMBL3886170, “Pyrrolo[3,2-c]pyridine tropomyosin-related kinase inhibitors” (2015)
